Assay results: patent publication US20110262464A1, “Compositions, Kits, and Methods for the Diagnosis, Prognosis, and Monitoring of Cancer Using GOLPH3” (DANAFARBER CANCER INSTITUTE, INC., priority 2008, published 2011)

What was measured:
[1] = tested on: WM239A melanoma xenograft tumors; assay: In vivo rapamycin treatment of xenograft tumors; design: species or system mouse; conditions: WM239A-GOLPH3 tumors; rapamycin 6.0 mg/kg i.p. every other day; day 8, post 4 doses
Method: (§1) For in vivo rapamycin studies, melanoma 1205LU and WM239A cells verified to stably-express empty vector or GOLPH3 were subcutaneously implanted into female nude animals (Taconic) at 5.0×10^5 cells/site on both flanks. Tumors were allowed to reach approximately 100 mm^3, after which time animals were randomized into separate cohorts for treatment with vehicle [5% (vol/vol) PEG400.5% (vol/vol) Tween-80) or rapamycin (6 mg/kg; LC Laboratories; 50 mg/ml stock prepared in 100% ETOH and diluted fresh in vehicle solvent for treatment) by intraperitoneal injection every other day. Tumor volumes and body weights were measured upon drug administration. Tumor volume was determined by measuring in two directions with vernier calipers and formulated as tumor volume=[…]. Growth curves were plotted as mean change in tumor volume for each group, where mean change indicates change in tumor volume at a given time point minus tumor volume at time of initial dose administration. Endpoint scatter plots were plotted as proportion of final dose endpoint tumor volume over respective tumor baseline starting volume. Percent tumor growth inhibition was determined as (1-(T/N))×100, where T is the mean change in tumor volume of the treated group and N is the mean change in tumor volume of the control group at the assay endpoint. Two-tailed t-test calculations were performed using Prism 4 (Graphpad).

[2] = tested on: 1205LU melanoma xenograft tumors; assay: In vivo rapamycin treatment of xenograft tumors; design: species or system mouse; conditions: 1205LU-GOLPH3 tumors; rapamycin 6.0 mg/kg i.p. every other day; day 8, post 4 doses
Method: as §1

`CO[C@H]1C[C@@H]2CC[C@@H](C)[C@@](O)(O2)C(=O)C(=O)N2CCCC[C@H]2C(=O)O[C@H]([C@H](C)C[C@@H]2CC[C@@H](O)[C@H](OC)C2)CC(=O)[C@H](C)/C=C(\C)[C@@H](O)[C@@H](OC)C(=O)[C@H](C)C[C@H](C)/C=C/C=C/C=C/1C` [rapamycin] was tested, and the “percent tumor growth inhibition (% TGI)” value [1] was 80.9% and the “percent tumor growth inhibition (% TGI)” value [2] was 81.9%.
